Experimental findings from PubChem BioAssay (NCI) are described below.

Some test systems named below: T-47D breast; SNB-19 CNS; SF-295 CNS; OVCAR-5 ovarian; MCF7 breast; IGROV1 ovarian; A549 NSCLC; TK-10 renal; SN12C renal; SNB-75 CNS.
Holding throughout (test): NCI anticancer screen, dose series, 48 h

Values joined by “and” are separate entries in the source; they are usually repeats but may differ in a detail not shown here. Identical values can stand only once.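 Compound exposure: 48 hours, 5 concentrations, 96-well plates. GI50 = concentration required for 50% inhibition of growth. TGI marks complete inhibition of growth.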

Take `CC(C)c1cc(C(C)C)c(B(c2ccccc2)c2ccccc2)c(C(C)C)c1Br`: the TGI in the assay with T-47D breast, with SNB-19 CNS, with SF-295 CNS, in the assay on OVCAR-5 ovarian, in the assay with MCF7 breast and in the assay on IGROV1 ovarian was > 100 µM throughout. The TGI in the assay with A549 NSCLC, with TK-10 renal and with SN12C renal was > 100 µM throughout.

With `CN(C)CC(C)(C)C(=O)/C=C/c1ccccc1`, the TGI in the assay with SNB-19 CNS is 31.4 µM; in the assay with SF-295 CNS, 33.2 µM; in the assay on IGROV1 ovarian, 59.7 µM; in the assay with SNB-75 CNS, 37.7 µM; in the assay with A549 NSCLC it was > 100 µM; in the assay with TK-10 renal, 32.1 µM. Also, in the assay on SN12C renal, the TGI was found to be 33.7 µM.

With `Nc1nc(Cl)cc(NCC2CC(O)(CO)C2)n1` (centres undefined), the TGI in the assay with T-47D breast, in the assay on SF-295 CNS, with OVCAR-5 ovarian, with MCF7 breast, with IGROV1 ovarian and in the assay on SNB-75 CNS was > 100 µM each time. The TGI in the assay with A549 NSCLC, in the assay with TK-10 renal and in the assay on SN12C renal was > 100 µM each time.

Take `Cc1cc(N)c2cc(NC(=O)CCCCCCCCC(=O)Nc3ccc4nc(C)cc(N)c4c3)ccc2n1`: the TGI is > 100 µM in the assay with SNB-19 CNS; > 88.7 µM in the assay on SF-295 CNS; > 100 µM in the assay on OVCAR-5 ovarian; > 100 µM with IGROV1 ovarian; > 100 µM in the assay on SNB-75 CNS; > 31.6 µM in the assay on A549 NSCLC. Besides, the TGI was > 100 µM with TK-10 renal and 26.6 µM in the assay with SN12C renal.

For the molecule `CC1CC/C(=C\c2ccc(F)cc2)C2=C1C(c1ccc(F)cc1)NC(=S)N2` (centres undefined), the TGI with T-47D breast is 70.8 µM; with SNB-19 CNS, > 100 µM; with SF-295 CNS, > 100 µM; with MCF7 breast, > 100 µM; in the assay on IGROV1 ovarian, > 100 µM; in the assay with TK-10 renal, > 100 µM. For the same molecule, the TGI in the assay with SN12C renal was > 100 µM.

On to `Nc1nn2cc(-c3ccccc3)[n+](CC(=O)c3ccccc3)c2s1`, for which the TGI was 55 µM with T-47D breast; 52.9 µM with SNB-19 CNS; > 100 µM in the assay with SF-295 CNS; 53.6 µM with OVCAR-5 ovarian; 24.6 µM with MCF7 breast; > 100 µM with IGROV1 ovarian. The TGI in the assay with A549 NSCLC, in the assay on TK-10 renal and with SN12C renal was > 100 µM each time.

As for `CCOC(=O)CCN1C(=O)c2c(NC(=O)C(=O)O)cccc2S1(=O)=O`, the TGI in the assay with T-47D breast, with SNB-19 CNS, in the assay with SF-295 CNS, in the assay with OVCAR-5 ovarian, in the assay on MCF7 breast and with IGROV1 ovarian was > 100 µM each time. In addition, the TGI in the assay on A549 NSCLC, in the assay on TK-10 renal and in the assay on SN12C renal was > 100 µM throughout.

For the molecule `CCOC(=O)N1c2c(c3ccccc3n2C(=O)OCC)C(=O)C(OC)N1C(=O)OCC` (centres undefined), the TGI in the assay on SNB-19 CNS was > 100 µM; with SF-295 CNS, 59.4 µM; in the assay with OVCAR-5 ovarian it was > 100 µM; in the assay on MCF7 breast it was > 100 µM; in the assay on IGROV1 ovarian, > 100 µM; with A549 NSCLC it was > 100 µM. For the same molecule, the TGI in the assay with TK-10 renal and in the assay with SN12C renal was > 100 µM throughout.

Regarding `Cc1cc(=O)oc2c(CN(CCCl)CCCl)c(O)ccc12`, the TGI with T-47D breast, in the assay on SNB-19 CNS, with SF-295 CNS, in the assay on OVCAR-5 ovarian, in the assay on MCF7 breast and in the assay on IGROV1 ovarian was > 100 µM throughout. The TGI in the assay on SNB-75 CNS, with A549 NSCLC and in the assay on SN12C renal was > 100 µM in each case.

Consider `COc1cc2c3c4[n+](cc2c(OC)c1OC)CCC4CCC3` (centres undefined), for which the TGI in the assay with T-47D breast, with SNB-19 CNS, in the assay with SF-295 CNS, in the assay with OVCAR-5 ovarian, in the assay with MCF7 breast and in the assay on IGROV1 ovarian was > 100 µM throughout. Moreover, the TGI in the assay on A549 NSCLC, with TK-10 renal and in the assay on SN12C renal was > 100 µM throughout.

For the molecule `Cc1cccc(-c2cc(=O)c3cc(C)cnc3[nH]2)c1`, the TGI with T-47D breast is > 100 µM; with SF-295 CNS it was 0.609 µM; in the assay with OVCAR-5 ovarian, > 100 µM; with IGROV1 ovarian it was > 100 µM; in the assay on SNB-75 CNS, > 100 µM; with A549 NSCLC, > 100 µM. The TGI in the assay on TK-10 renal was > 100 µM; in the assay on SN12C renal, > 94.6 µM.

In the case of `O=S1(=O)OCCOS(=O)(=O)C1S(=O)(=O)c1cccc2ccccc12`, the TGI in the assay with SF-295 CNS, in the assay on OVCAR-5 ovarian, in the assay on MCF7 breast, with IGROV1 ovarian, in the assay with A549 NSCLC and with SN12C renal was > 100 µM throughout.

Take `S=C1NNC(=S)NN1`: the TGI with T-47D breast was > 1 µM; in the assay with SNB-19 CNS it was > 1 µM; in the assay with SF-295 CNS, 0.486 µM; in the assay on MCF7 breast, > 1 µM; in the assay on IGROV1 ovarian, > 1 µM; in the assay on A549 NSCLC, > 1 µM. Moreover, the TGI with TK-10 renal is > 1 µM; with SN12C renal it was 0.354 µM.

As to `COc1cccc2c1C(=O)c1c(O)c3c(c(O)c1C2=O)C[C@@](O)(C(=O)CO)CC3OC1CC(NCCCCC(OC(C)=O)OC(C)=O)C(O)C(C)O1` (some centres undefined), the TGI was > 1 µM in the assay on SNB-19 CNS; 0.0335 µM in the assay with SF-295 CNS; > 1 µM with OVCAR-5 ovarian; > 1 µM in the assay on IGROV1 ovarian; 0.00432 µM and 0.00344 µM in the assay on SNB-75 CNS; > 1 µM in the assay on TK-10 renal. The TGI in the assay on SN12C renal was > 1 µM. The GI50 is 0.00227 µM in the assay with SF-295 CNS, 0.00355 µM in the assay with IGROV1 ovarian, 0.000927 µM in the assay with SNB-75 CNS and 0.000935 µM with SN12C renal.

In the case of `Cc1cnc2cc(Cl)ccc2c1SCC(=O)O`, the TGI with T-47D breast, with SNB-19 CNS, in the assay on SF-295 CNS, with OVCAR-5 ovarian, in the assay on IGROV1 ovarian and in the assay on A549 NSCLC was > 100 µM throughout. In addition, the TGI in the assay on TK-10 renal and in the assay with SN12C renal was > 100 µM in each case.

Consider `O=C1/C(=C/Cc2ccco2)N=C(c2ccccc2)N1c1nc2c(Cl)cc(Cl)cc2s1`, for which the TGI with T-47D breast is 73.5 µM; in the assay with SNB-19 CNS, > 100 µM; with SF-295 CNS, > 100 µM; in the assay on OVCAR-5 ovarian, > 100 µM; in the assay with MCF7 breast, > 100 µM; with IGROV1 ovarian, > 100 µM. In addition, the values for the TGI in the assay with A549 NSCLC, with TK-10 renal and in the assay on SN12C renal were 80.7 µM, > 100 µM and > 100 µM, respectively.
